From patent US7196110B2, “N-substituted tricyclic 3-aminopyrazoles as inhibitors for the treatment of cell proliferative disorders” (Janssen Phamaceutica N.V., priority 2002, dated 2007)
Read-outs that look alike come from different tables or passages of the source.

Target: T1, PDGF-receptor beta enzyme comprising the tyrosine kinase domain (Homo sapiens, UniProt P09619)
T1 construct: from amino acid 545 to 1106 of GenBank Access NO: AAA36427
Test: Inhibition of PDGF-receptor kinase activity (cell-free, PLC1 peptide, 33P Flashplate)
Format: biochemical
Conditions: for inhibition at 10 µM: read-out: Percent Inhibition @ 10 uM
Outline: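 Recombinant kinase domain (aa 545–1106) phosphorylated a biotinylated PLC1 peptide with 5 μM ATP plus 33P-γ-ATP, in Tris pH 8, MgCl2, Na3VO4 and 1 mM DTT, for 60 min at 30 °C. Retained 33P was counted after washing. IC50 is the concentration halving activity versus no-inhibitor reactions.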

[1] = PDGF-R kinase activity, compound at 10 uM
[2] = PDGF-R kinase activity, read-out: IC50
[3] = read-out: IC50 (μM) on PDGF-R kinase activity

T1 sequence (P09619 545-1106): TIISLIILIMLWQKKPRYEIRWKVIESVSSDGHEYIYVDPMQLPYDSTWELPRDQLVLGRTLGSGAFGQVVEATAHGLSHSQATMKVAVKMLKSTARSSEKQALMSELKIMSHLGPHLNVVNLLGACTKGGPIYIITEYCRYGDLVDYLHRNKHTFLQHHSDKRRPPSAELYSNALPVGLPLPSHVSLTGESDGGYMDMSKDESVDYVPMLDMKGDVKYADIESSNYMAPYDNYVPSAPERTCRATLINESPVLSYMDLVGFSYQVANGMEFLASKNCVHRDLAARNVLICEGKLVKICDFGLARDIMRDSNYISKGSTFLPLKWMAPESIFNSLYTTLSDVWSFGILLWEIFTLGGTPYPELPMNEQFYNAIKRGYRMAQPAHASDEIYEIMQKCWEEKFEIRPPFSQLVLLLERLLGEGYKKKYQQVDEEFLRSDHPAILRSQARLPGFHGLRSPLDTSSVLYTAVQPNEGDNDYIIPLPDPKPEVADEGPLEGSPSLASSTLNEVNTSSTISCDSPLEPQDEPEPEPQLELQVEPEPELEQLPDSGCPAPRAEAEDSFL

SMILES: Cc1cccc2c1Cc1c-2n[nH]c1Nc1ccc(C(F)(F)F)cc1 [Compound 105, (5-Methyl-2,4-dihydro-indeno[1,2-c]pyrazol-3-yl)-(4-trifluoromethyl-phenyl)-amine]
- inhibition at 10 µM [1]: 69%
- IC50 [2]: 1.88 µM

SMILES: Fc1ccccc1CNc1[nH]nc2c1Cc1c(OCCCN3CCOCC3)cccc1-2 [Compound 416, (2-Fluoro-benzyl)-[5-(3-morpholin-4-yl-propoxy)-2,4-dihydro-indeno[1,2-c]pyrazol-3-yl]-amine]
- inhibition at 10 µM [1]: 72.5%
- IC50 [2]: 1.19 µM

SMILES: Fc1cccc(Nc2[nH]nc3c2Cc2cc(Br)ccc2-3)c1 [Compound 151, (6-Bromo-2,4-dihydro-indeno[1,2-c]pyrazol-3-yl)-(3-fluoro-phenyl)-amine]
- inhibition at 10 µM [1]: 79%
- IC50 [2]: 0.0918 µM

SMILES: COc1cc2c(cc1OC)-c1n[nH]c(Nc3ccc(F)c([N+](=O)[O-])c3)c1C2 [Compound 276, (6,7-Dimethoxy-2,4-dihydro-indeno[1,2-c]pyrazol-3-yl)-(4-fluoro-3-nitro-phenyl)-amine]
- inhibition at 10 µM [1]: 11%
- IC50 [2]: 0.287 µM

SMILES: CN(C)CCCOc1cccc2c1Cc1c-2n[nH]c1Nc1cccc(Cl)c1 [Compound 72, (3-Chloro-phenyl)-[5-(3-dimethylamino-propoxy)-2,4-dihydro-indeno[1,2-c]pyrazol-3-yl]-amine]
- inhibition at 10 µM [1]: 96%
- IC50 [2]: 0.283 µM

SMILES: COc1cc2c(cc1F)Cc1c-2n[nH]c1Nc1cccnc1 [Compound 364, (6-Fluoro-7-methoxy-2,4-dihydro-indeno[1,2-c]pyrazol-3-yl)-pyridin-3-yl-amine]
- inhibition at 10 µM [1]: 100%
- IC50 [2]: 0.0151 µM

SMILES: CC(C)Oc1cc2c(cc1OC(C)C)C(C)c1c-2n[nH]c1Nc1cccc(F)c1 (stereo not drawn) [Compound 351, (6,7-Diisopropoxy-4-methyl-2,4-dihydro-indeno[1,2-c]pyrazol-3-yl)-(3-fluoro-phenyl)-amine]
- inhibition at 10 µM [1]: 93%
- IC50 [2]: 0.4 µM

SMILES: CCOc1cc2c(cc1OCC)-c1n[nH]c(Nc3cccc(F)c3)c1C2 [Compound 594, (6,7-Diethoxy-2,4-dihydro-indeno[1,2-c]pyrazol-3-yl)-(3-fluoro-phenyl)-amine]
- inhibition at 10 µM [1]: 64%
- IC50 [3]: 0.0156 µM

SMILES: COc1cc2c(cc1OC)-c1nn(COC(=O)C(C)(C)C)c(Nc3cccc(F)c3)c1C2 [Compound 408, 2,2-Dimethyl-propionic acid 3-(3-fluoro-phenylamino)-6,7-dimethoxy-4H-indeno[1,2-c]pyrazol-2-ylm ethyl ester]
- inhibition at 10 µM [1]: 83%
- IC50 [2]: 0.687 µM

SMILES: Cc1cccc(Nc2[nH]nc3c2Cc2cc(F)ccc2-3)c1 [Compound 240, (6-Fluoro-2,4-dihydro-indeno[1,2-c]pyrazol-3-yl)-m-tolyl-amine]
- inhibition at 10 µM [1]: 92%
- IC50 [2]: 0.002 µM

SMILES: CC(C)Oc1cc2c(cc1OC(C)C)-c1n[nH]c(Nc3ccc(F)c(Cl)c3)c1C2 [Compound 167, (3-Chloro-4-fluoro-phenyl)-(6,7-diisopropoxy-2,4-dihydro-indeno[1,2-c]pyrazol-3-yl)-amine]
- inhibition at 10 µM [1]: 92%
- IC50 [2]: 0.511 µM

SMILES: COCCCOc1ccc2c(c1)Cc1c-2n[nH]c1Nc1ccc(OC)cc1 [Compound 143, (4-Methoxy-phenyl)-[6-(3-methoxy-propoxy)-2,4-dihydro-indeno[1,2-c]pyrazol-3-yl]-amine]
- inhibition at 10 µM [1]: 67%
- IC50 [2]: 8.12 µM

SMILES: COc1cc2c(cc1OC)-c1n[nH]c(NCCN3CCCCC3)c1C2 [Compound 81, (6,7-Dimethoxy-2,4-dihydro-indeno[1,2-c]pyrazol-3-yl)-(2-piperidin-1-yl-ethyl)-amine]
- inhibition at 10 µM [1]: 29%
- IC50 [2]: 85.9 µM

SMILES: CCOc1cccc(Nc2[nH]nc3c2C(C)c2cc(OC)c(OC)cc2-3)c1 (single isomer, unassigned) [Compound 569, (6,7-Dimethoxy-4-methyl-2,4-dihydro-indeno[1,2-c]pyrazol-3-yl)-(3-ethoxy-phenyl)-amine]
- Percent Inhibition @ 10 uM (PDGF-R kinase activity, compound at 10 uM, 10 µM): 64%
- IC50 [2]: 5.1 µM

SMILES: CCOC(=O)CNC(=O)n1nc2c(c1Nc1cccc(F)c1)Cc1cc(OC)c(OC)cc1-2 [Compound 407, {[3-(3-Fluoro-phenylamino)-6,7-dimethoxy-4H-indeno[1,2-c]pyrazole-2-carbonyl]-amino}-acetic acid ethyl ester]
- inhibition at 10 µM [1]: 39%
- IC50 [2]: 9.88 µM

SMILES: COc1cc2c(cc1OC)-c1n[nH]c(NCc3ccc(Cl)c(Cl)c3)c1C2 [Compound 219, (3,4-Dichloro-benzyl)-(6,7-dimethoxy-2,4-dihydro-indeno[1,2-c]pyrazol-3-yl)-amine]
- inhibition at 10 µM [1]: 39%

SMILES: CCC1c2cc(OC)c(OC)cc2-c2c1c(Nc1cccc(Br)c1)nn2C(=O)COCc1ccccc1 (stereo not drawn) [Compound 519, 2-Benzyloxy-1-[3-(3-bromo-phenylamino)-4-ethyl-6,7-dimethoxy-4H-indeno[1,2-c]pyrazol-1-yl]-ethanone]
- inhibition at 10 µM [1]: 97.5%
- IC50 [2]: 0.139 µM

SMILES: COc1cc2c(cc1F)Cc1c-2n[nH]c1NCc1ccccc1C [Compound 425, (6-Fluoro-7-methoxy-2,4-dihydro-indeno[1,2-c]pyrazol-3-yl)-(2-methyl-benzyl)-amine]
- inhibition at 10 µM [1]: 96%
- IC50 [2]: 0.0023 µM

SMILES: CC(C)Oc1cc2c(cc1OC(C)C)C(C)c1c-2n[nH]c1Nc1ccc(F)cc1 (stereo not drawn) [Compound 356, (6,7-Diisopropoxy-4-methyl-2,4-dihydro-indeno[1,2-c]pyrazol-3-yl)-(4-fluoro-phenyl)-amine]
- inhibition at 10 µM [1]: 70%
- IC50 [2]: 1.95 µM

SMILES: COC(=O)n1nc2c(c1Nc1cccc(F)c1)Cc1cc(OC)c(OC)cc1-2 [Compound 434, 3-(3-Fluoro-phenylamino)-6,7-dimethoxy-4H-indeno[1,2-c]pyrazole-2-carboxylic acid methyl ester]
- inhibition at 10 µM [1]: 86%
- IC50 [2]: 0.503 µM

SMILES: COc1cccc2c1Cc1c-2n[nH]c1Nc1ccc(F)cc1 [Compound 144, (4-Fluoro-phenyl)-(5-methoxy-2,4-dihydro-indeno[1,2-c]pyrazol-3-yl)-amine]
- inhibition at 10 µM [1]: 96.5%
- IC50 [2]: 0.836 µM

SMILES: Cc1ccc2c(c1)-c1n[nH]c(Nc3ccc4[nH]ccc4c3)c1C2 [Compound 311, (1H-Indol-5-yl)-(7-methyl-2,4-dihydro-indeno[1,2-c]pyrazol-3-yl)-amine]
- inhibition at 10 µM [1]: 68.5%
- IC50 [2]: 0.0748 µM

SMILES: COc1cc2c(cc1OC)C(C)c1c-2n[nH]c1NCc1c(Cl)cccc1Cl (single isomer, unassigned) [Compound 586, (2,6-Dichloro-benzyl)-(6,7-dimethoxy-4-methyl-2,4-dihydro-indeno[1,2-c]pyrazol-3-yl)-amine]
- inhibition at 10 µM [1]: 100%
- IC50 [3]: 0.0278 µM

SMILES: COc1cc2c(cc1OC)-c1n[nH]c(Nc3ccccn3)c1C2 [Compound 562, (6,7-Dimethoxy-2,4-dihydro-indeno[1,2-c]pyrazol-3-yl)-pyridin-2-yl-amine]
- inhibition at 10 µM [1]: 93.5%
- IC50 [2]: 0.084 µM

SMILES: COC(=O)C(CC(C)C)NC(=O)n1nc2c(c1Nc1cccc(F)c1)Cc1cc(OC)c(OC)cc1-2 (stereo not drawn) [Compound 412, 2-{[3-(3-Fluoro-phenylamino)-6,7-dimethoxy-4H-indeno[1,2-c]pyrazole-2-carbonyl]-amino}-4-methyl-pentanoic acid methyl ester]
- inhibition at 10 µM [1]: 44%
- IC50 [2]: 12.7 µM

SMILES: CC(C)Oc1cc2c(cc1OC(C)C)C(C)c1c-2n[nH]c1Nc1cccnc1 (stereo not drawn) [Compound 352, (6,7-Diisopropoxy-4-methyl-2,4-dihydro-indeno[1,2-c]pyrazol-3-yl)-pyridin-3-yl-amine]
- inhibition at 10 µM [1]: 86.5%
- IC50 [2]: 0.755 µM

SMILES: COc1cc2c(cc1OC)-c1c(c(Nc3cccc(F)c3)nn1Cc1ccc(OC(C)=O)cc1)C2 [Compound 498, Acetic acid 4-[3-(3-fluoro-phenylamino)-6,7-dimethoxy-4H-indeno[1,2-c]pyrazol-1-ylmethyl]-phenyl ester]
- inhibition at 10 µM [1]: 51.5%
- IC50 [2]: 8.33 µM

SMILES: COc1cccc(Nc2[nH]nc3c2C(C)(C)c2cc(OC)c(OC)cc2-3)c1 [Compound 488, (6,7-Dimethoxy-4,4-dimethyl-2,4-dihydro-indeno[1,2-c]pyrazol-3-yl)-(3-methoxy-phenyl)-amine]
- inhibition at 10 µM [1]: 33.5%
- IC50 [2]: 39.3 µM

SMILES: COc1cc2c(cc1OC)-c1n[nH]c(Nc3cccc4c3OC(F)(F)O4)c1C2 [Compound 565, (2,2-Difluoro-benzo[1,3]dioxol-4-yl)-(6,7-dimethoxy-2,4-dihydro-indeno[1,2-c]pyrazol-3-yl)-amine]
- inhibition at 10 µM [1]: 41.5%

SMILES: COC(=O)CCCC(=O)n1nc(Nc2cccc(F)c2)c2c1-c1cc(OC)c(OC)cc1C2 [Compound 464, 5-[3-(3-Fluoro-phenylamino)-6,7-dimethoxy-4H-indeno[1,2-c]pyrazol-1-yl]-5-oxo-pentanoic acid methyl ester]
- inhibition at 10 µM [1]: 92%
- IC50 [2]: 0.245 µM

SMILES: COc1cc2c(cc1OCC(O)CN1CCCC1)Cc1c-2n[nH]c1NCc1c(Cl)cccc1Cl (stereo not drawn) [Compound 390, 1-[3-(2,6-Dichloro-benzylamino)-7-methoxy-2,4-dihydro-indeno[1,2-c]pyrazol-6-yloxy]-3-pyrrolidin-1-yl-propan-2-ol]
- inhibition at 10 µM [1]: 99%
- IC50 [2]: 0.00203 µM

SMILES: CCOc1cc2c(cc1OCC)-c1n[nH]c(NCc3ccccc3)c1C2 [Compound 264, Benzyl-(6,7-diethoxy-2,4-dihydro-indeno[1,2-c]pyrazol-3-yl)-amine]
- inhibition at 10 µM [1]: 86%
- IC50 [2]: 0.0852 µM

SMILES: COc1cc2c(cc1OC)-c1n[nH]c(Nc3cc(C(F)(F)F)cc(C(F)(F)F)c3)c1C2 [Compound 70, (3,5-Bis-trifluoromethyl-phenyl)-(6,7-dimethoxy-2,4-dihydro-indeno[1,2-c]pyrazol-3-yl)-amine]
- inhibition at 10 µM [1]: 41.5%
- IC50 [2]: 16.8 µM

SMILES: COc1cc2c(cc1OC)-c1n[nH]c(Nc3cc(Cl)ccc3Cl)c1C2 [Compound 34, (2,5-Dichloro-phenyl)-(6,7-dimethoxy-2,4-dihydro-indeno[1,2-c]pyrazol-3-yl)-amine]
- inhibition at 10 µM [1]: 57%
- IC50 [2]: 6.99 µM
